Reference: paper PMC5365645, “Preclinical Pharmacokinetics and Pharmacodynamic Target of SCY-078, a First-in-Class Orally Active Antifungal Glucan Synthesis Inhibitor, in Murine Models of Disseminated Candidiasis” (Antimicrobial Agents and Chemotherapy, 2017)
Where two headings read alike, the source gives them in different places. *1 amine or outer side, *2 acyl side, *3 side chain or, on linkers, in order; H or OH if unused. Where a SMILES comes first, the peptide text is derived from it. Bridges are numbered along the chain shown (N, C = ends). [ ]: non-standard residue; d: D form. The star is where a group is joined. hTyr(3S-OH,4S-OH,3'-OSO3H) = N[C@H](C(=O)O)[C@H](O)[C@@H](O)c1ccc(O)c(OS(=O)(=O)O)c1; pTerphenylCO(4''-OnC5H11) = CCCCCOc1ccc(-c2ccc(-c3ccc(C(=O)*)cc3)cc2)cc1; Orn(4R-OH,5R-OH) = O=C([C@H](C[C@@H](O)[C@@H](O)N[*:3])N[*:1])[*:2]; hTyr(3S-OH,4S-OH) = N[C@H](C(=O)O)[C@H](O)[C@@H](O)c1ccc(O)cc1; Pro(3S-OH,4S-Me) = C[C@H]1CN[C@H](C(=O)O)[C@H]1O; X1 = CCCCCOc1ccc(-c2cc(-c3ccc(C(=O)*)cc3)no2)cc1; Gln(3R-OH) = NC(=O)C[C@@H](O)[C@H](N)C(=O)O; Hyp = O=C(O)[C@@H]1C[C@@H](O)CN1

Legend:
[1] = Volume of distribution after i.v. administration (literature); conditions: in vivo, iv, Rat, calculated using previously published data ref 17, read-out: Vd ss
Source text: TABLE 7 Volume of distribution for SCY-078 and echinocandins after i.v. administration | column: Vd ss (liters/kg)^a / Anidulafungin

[2] = Human, cited from earlier work
[3] = cited from earlier work
[4] = Rabbit, cited from earlier work
C. albicans MY1055 = assay: Immediate treatment murine model of disseminated candidiasis
[5] = parameters: method as in ref 26 = [26]; 26. Yamato Y , Kaneko H , Hashimoto T , Katashima M , Ishibashi K , Kawamura A , Terakawa M , Kagayama A 2002 Pharmacokinetics of the anti-fungal drug micafungin in mice, rats and dogs, and its in vit; conditions: Dog, i.v. ref 26; cited from earlier work
[6] = Rat, i.v. ref 26; cited from earlier work
[7] = Mouse, cited from earlier work

SMILES: CCCCCOc1ccc(-c2ccc(-c3ccc(C(=O)N[C@H]4C[C@@H](O)[C@@H](O)NC(=O)[C@@H]5[C@@H](O)[C@@H](C)CN5C(=O)[C@H]([C@@H](C)O)NC(=O)[C@H]([C@H](O)[C@@H](O)c5ccc(O)cc5)NC(=O)[C@@H]5C[C@@H](O)CN5C(=O)[C@H]([C@@H](C)O)NC4=O)cc3)cc2)cc1 [Anidulafungin, anidulafungin] ({pTerphenylCO(4''-OnC5H11)}-[Orn(4R-OH,5R-OH)]T[Hyp][hTyr(3S-OH,4S-OH)]T[Pro(3S-OH,4S-Me)]; lactam 1-C)
- Vd [1]: 2.16 L/kg
- Vd ss ([2]; i.v. ref 31): 0.5 L/kg
- Kidney/plasma ratio ([3]; after i.v. delivery to rodents ref 17): 10.7
- Vd ss ([4]; i.v. ref 28): 0.93–1.23 ([28]) liters/kg

SMILES: OC(Cn1cncn1)(Cn1cncn1)c1ccc(F)cc1F [FLU, fluconazole, reference compound]
- Clearance of fungal infection (C. albicans MY1055; up to 5 mg/kg p.o. BID): did not result in clearance of fungal infection in any of the animals tested

SMILES: CCCCCOc1ccc(-c2cc(-c3ccc(C(=O)N[C@H]4C[C@@H](O)[C@@H](O)NC(=O)[C@@H]5[C@@H](O)[C@@H](C)CN5C(=O)[C@H]([C@H](O)CC(N)=O)NC(=O)[C@H]([C@H](O)[C@@H](O)c5ccc(O)c(OS(=O)(=O)O)c5)NC(=O)[C@@H]5C[C@@H](O)CN5C(=O)[C@H]([C@@H](C)O)NC4=O)cc3)no2)cc1 [Micafungin, micafungin] (X1-[Orn(4R-OH,5R-OH)]T[Hyp][hTyr(3S-OH,4S-OH,3'-OSO3H)][Gln(3R-OH)][Pro(3S-OH,4S-Me)]; lactam 1-C)
- Vd ss [5]: 0.23–0.25 ([26]) liters/kg
- Vd ss [6]: 0.42–0.56 ([26]) liters/kg
- Vd ss ([2]; i.v. ref 31): 0.21 to 0.24 L/kg
- Vd ss ([2]; i.v. ref 32): 0.26 L/kg
- Kidney/plasma ratio ([3]; after i.v. delivery to rodents ref 24): 3.4
- Vd ss ([7]; i.v. ref 26): 0.38–0.49 ([26]) liters/kg
- Vd ss ([4]; i.v. ref 30): 0.313 ([30]) liters/kg

SMILES: CC[C@H](C)C[C@H](C)CCCCCCCCC(=O)N[C@H]1C[C@@H](O)[C@@H](NCCN)NC(=O)[C@@H]2[C@@H](O)CCN2C(=O)[C@H]([C@H](O)CCN)NC(=O)[C@H]([C@H](O)[C@@H](O)c2ccc(O)cc2)NC(=O)[C@@H]2C[C@@H](O)CN2C(=O)[C@H]([C@@H](C)O)NC1=O [Caspofungin, caspofungin]
- Dose effective in clearing kidney fungal burden (C. albicans MY1055; administered intraperitoneally twice daily (data not shown)): ≥ 0.125 mg/kg
- Vd ss ([2]; i.v. ref 31): 0.14 ([31]) liters/kg
- Kidney/plasma ratio ([3]; after i.v. delivery to rodents ref 22): approximately 2.9
- Kidney/plasma ratio ([3]; after i.v. delivery to rodents, based on the total radioactivity over 24 h ref 23): 2.8
- Vd ss ([7]; i.v. ref 22): 0.25 L/kg
- Vd ss ([7]; i.v. ref 25): 0.45 L/kg
- Vd ss ([4]; i.v. ref 25): 0.28 L/kg
- Vd ss ([4]; i.v. ref 29): 0.26 L/kg
